Where two headings read alike, the source gives them in different places.
Legend:
[1] = tested on: E. coli strains HT-99 (donor) and J53R (receptor); format: cell-based, Escherichia coli; conditions: for Class of ingredient by conjugation frequency compared to control (in words): single ingredient, 100 mg/L, from Table 1
HT99 or J53R cells = format: cell-based, E. coli

SMILES | Conjugation frequency [1] | Conjugation frequency ([1]; 3 hours, 37° C.) | Class of ingredient by conjugation frequency compared to control (in words) [1] | Conjugation compared to control (in words) ([1]; result in words) | Conjugation frequency ([1]; citral alone or mixed with conjugation inhibitors (100 mg of each per mL stock, 10 μL in 10 mL), control 0.0014) | expression of the yqfA gene (hemolysin III family protein) (HT99 or J53R cells) | fatty acid biosynthesis (fabB) gene expression upon treatment with oleic acid (HT99 or J53R cells) | fatty acid degradation (fadB) gene expression upon treatment with oleic acid (HT99 or J53R cells)
Cc1ccc(C(C)C)cc1O [Carvacrol, carvacrol] | 0.0052 | 0.0044 | conjugation enhancers |  |  |  |  | 
O=CC=Cc1ccccc1 [Cinnamaldehyde, cinnamaldehyde] | 0.0014 | 0.0011 | conjugation inert ingredient | not affected |  |  |  | 
CC(C)=CCCC(C)=CC=O [Citral, citral] |  | 0.0023 | conjugation enhancers |  | 0.0028 |  |  | 
C=CC(C)(O)CCC=C(C)C (stereo not drawn) [Linalool, linalool] |  | 0.00085 | conjugation inhibitors |  |  |  |  | 
CCCCCCCC/C=C\CCCCCCCC(=O)O [Oleic acid, oleic acid] |  | 0.00011 | conjugation inhibitors |  |  | reduced | inhibition | inducing
O=C(OC[C@H]1O[C@@H](OC(=O)c2cc(O)c(O)c(OC(=O)c3cc(O)c(O)c(O)c3)c2)[C@H](OC(=O)c2cc(O)c(O)c(OC(=O)c3cc(O)c(O)c(O)c3)c2)[C@@H](OC(=O)c2cc(O)c(O)c(OC(=O)c3cc(O)c(O)c(O)c3)c2)[C@@H]1OC(=O)c1cc(O)c(O)c(OC(=O)c2cc(O)c(O)c(O)c2)c1)c1cc(O)c(O)c(OC(=O)c2cc(O)c(O)c(O)c2)c1 [Tannic acid, tannic acid] |  | 0.00007 | conjugation inhibitors |  |  |  |  | 
Cc1ccc(C(C)C)c(O)c1 [Thymol, thymol] |  | 0.0019 | conjugation enhancers |  |  |  |  | 
